Data published in US6270957A, “Non-Imuunosuppressive cyclosporins and their use in the prevention and treatment of HIV infection” (Wisconsin Alumni Research Foundation, priority 1999, dated 2001).
Square brackets hold non-standard residues; d marks the D form. Side chains are listed from the residue outwards. Peptide text beside a SMILES is read from it. * marks the point of attachment. X2 = CC(C)CN(C[C@@H](O)[C@H](Cc1ccc(OCC(=O)*)cc1)NC(=O)O[C@H]1CCOC1)S(=O)(=O)c1ccc(N)cc1; X1 = NC(=O)C[C@H](NC(=O)OCc1ccccc1)C(=O)N[C@@H](Cc1ccccc1)[C@@H](O)CN1CCC[C@H]1C(=O)*; X3 = CC(C)(C)c1cc(OCC(=O)*)ccc1Sc1c(O)cc(-c2ccccc2)oc1=O; NMeLeu(3R-OH) = CN[C@H](C(=O)O)[C@H](O)C(C)C; NMeL = CN[C@@H](CC(C)C)C(=O)O; NMeV = CN[C@H](C(=O)O)C(C)C; dNMeS = CN[C@H](CO)C(=O)O; Abu = CC[C@H](N)C(=O)O

Columns and labels:
HIV protease = biological target: T1, HIV protease (Human immunodeficiency virus type 1 group M subtype B, UniProt P04585); test: Inhibition of HIV protease; type: biochemical; settings: read-out: Ki against HIV protease
T1 construct: HIV protease is an aspartic protease that cleaves the immature viral protein gag-pol into mature structural proteins and enzymes

cyclophilin = cyclophilin (Homo sapiens, UniProt P62937); test: Inhibition of cyclophilin; type: biochemical; settings: read-out: Ki against cyclophilin
Chain of cyclophilin (P62937 whole entry): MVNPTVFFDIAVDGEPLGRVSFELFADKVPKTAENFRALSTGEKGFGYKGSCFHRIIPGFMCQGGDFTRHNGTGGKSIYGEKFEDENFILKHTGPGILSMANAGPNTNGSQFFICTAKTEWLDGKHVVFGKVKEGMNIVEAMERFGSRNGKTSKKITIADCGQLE

HIV-1 = settings: CEM cells, HIV-1, 6 days, XTT; quadruplicate runs
Experimental: The procedure used in the National Cancer Institute's test for agents active against human immunodeficiency virus (HIV) is designed to detect agents acting at any stage of the virus reproductive cycle. The assay basically involves the killing of T4 lymphocytes by HIV. Small amounts of HIV are added to cells, and two cycles of virus reproduction are necessary to obtain the required cell killing. Agents that interact with virions, cells, or virus gene-products to interfere with viral activities will protect cells from cytolysis. The system is automated in several features to accommodate large numbers of candidate agents and is generally designed to detect anti-HIV activity. However, compounds that degenerate or are rapidly metabolized in the culture conditions may not show activity in this screen. All tests are compared with at least one positive (e.g., AZT-treated) control done at the same time under identical conditions.
Candidate agent is dissolved in dimethyl sulfoxide (unless otherwise instructed) then diluted 1:100 in cell culture medium before preparing serial half-log10 dilutions. […]
Individual wells are analyzed spectrophotometrically to quantitate formazan production, and in addition are viewed microscopically for detection of viable cells and confirmation of protective activity. […]

[1] = compared with DMP-323; cited from earlier work
HIV = settings: read-out: anti-HIV potency IC90; cited from earlier work

SMILES	Ki (HIV protease) [nM]	Ki (cyclophilin) [nM]	NCI determination of anti-HIV activity (HIV-1)	plasma concentrations [1]	IC90 (HIV) [nM]
CC[C@@H]1NC(=O)[C@H]([C@H](O)C(C)C)N(C)C(=O)[C@H](C(C)C)N(C)C(=O)[C@H](CC(C)C)N(C)C(=O)[C@H](CC(C)C)N(C)C(=O)[C@@H](C)NC(=O)[C@H](CCCCNC(=O)[C@H](Cc2ccccc2)NC(=O)[C@@H](NC(=O)[C@@H]2CCCN2C[C@H](O)[C@H](Cc2ccccc2)NC(=O)[C@H](CC(N)=O)NC(=O)OCc2ccccc2)[C@@H](C)CC)NC(=O)[C@H](CC(C)C)N(C)C(=O)[C@H](C(C)C)NC(=O)[C@H](CC(C)C)N(C)C(=O)[C@@H](CO)N(C)C1=O [Compound 2.8] (cyclo([Abu][dNMeS][NMeL]V[NMeL]K([Phe-Ile-X1])[dA][NMeL][NMeL][NMeV][NMeLeu(3R-OH)]))	1	20	–	–	–
CC[C@@H]1NC(=O)[C@H]([C@H](O)C(C)C)N(C)C(=O)[C@H](C(C)C)N(C)C(=O)[C@H](CC(C)C)N(C)C(=O)[C@H](CC(C)C)N(C)C(=O)[C@@H](C)NC(=O)[C@H](CCCCNC(=O)COc2ccc(Sc3c(O)cc(-c4ccccc4)oc3=O)c(C(C)(C)C)c2)NC(=O)[C@H](CC(C)C)N(C)C(=O)[C@H](C(C)C)NC(=O)[C@H](CC(C)C)N(C)C(=O)[C@@H](CO)N(C)C1=O [Compound 2.9] (cyclo([Abu][dNMeS][NMeL]V[NMeL]K(X3)[dA][NMeL][NMeL][NMeV][NMeLeu(3R-OH)]))	3.4	9.3	–	–	–
CC[C@@H]1NC(=O)[C@H]([C@H](O)C(C)C)N(C)C(=O)[C@H](C(C)C)N(C)C(=O)[C@H](CC(C)C)N(C)C(=O)[C@H](CC(C)C)N(C)C(=O)[C@@H](C)NC(=O)[C@H](CCCCNC(=O)COc2ccc(C[C@H](NC(=O)O[C@H]3CCOC3)[C@H](O)CN(CC(C)C)S(=O)(=O)c3ccc(N)cc3)cc2)NC(=O)[C@H](CC(C)C)N(C)C(=O)[C@H](C(C)C)NC(=O)[C@H](CC(C)C)N(C)C(=O)[C@@H](CO)N(C)C1=O [Compound 2.10] (cyclo([NMeLeu(3R-OH)][Abu][dNMeS][NMeL]V[NMeL]K(X2)[dA][NMeL][NMeL][NMeV]))	2.3	6	confirmed active	–	–
Nc1cccc(CN2C(=O)N(Cc3cccc(N)c3)[C@H](Cc3ccccc3)[C@H](O)[C@@H](O)[C@H]2Cc2ccccc2)c1 [DMP-450]	–	–	–	much higher plasma concentrations	–
O=C(Nc1nc2ccccc2[nH]1)c1cccc(CN2C(=O)N(Cc3cccc(C(=O)Nc4nc5ccccc5[nH]4)c3)[C@H](Cc3ccccc3)[C@H](O)[C@@H](O)[C@H]2Cc2ccccc2)c1 [SD-146]	–	–	–	–	5.1
